# From patent US5843916A, “Cyclic amp analogues, individually and in pairs, to inhibit neoplastic cell growth” (priority 1994, dated 1998)
# Entries after “also recorded” stand apart in the source; their conditions may differ.
# Assays:
# MCF-7 = test: Cell cycle analysis by flow cytometry (Table 3); type: cell-based, human; settings: 10 μM; 3 days
# Experimental: DNA histograms were generated on FACS II by using the DNA intercalating dye propidium iodide as described by Braylan et al. in Cytometry 2: 337-343, 1982. The percentage of cells in each cycle phase was calculated by using a PDP-11/34 computer and software as described by Neckers et al., Mol. Cell. Biol. 6: 4244-4250, 1986.
# Breast (MCF-7, MDA-MB-231) and colon (LS-174T) cancer cells in log
# phase (untreated control) and 3 days after treatment with 8-C1-cAMP
# (10 μM), N^6 -benzyl-cAMP (35 μM), and 8-Cl-adenosine (5
# were analyzed for DNA content by flow cytometric analysis as described
# below. Similar results were obtained with other breast and colon cancer
# [1] = test system: LS-174T human colon carcinoma cells; test: Additive growth inhibition with 8-Cl-cAMP (Table 19); type: cell-based; settings: Homo sapiens, LS174T, 96 h; 1 μM; 4 days
# Experimental: The medium was changed every 48 hours.
# At desired times, cell counts were performed in duplicate on a Coulter Counter after harvesting cells with gentle trypsinization.
# The analogues were added at 24
# [2] = target: T1, RI, regulatory subunit of cAMP-dependent protein kinase type I (Oryctolagus cuniculus, UniProt G1TDN4); settings: cited from earlier work
# T1 construct: from tissue
# [3] = test system: RIα and RIIβ isoforms of the cAMP receptor protein; protein kinase type I and II; settings: cited from earlier work
# L1210 leukemia = test: Life span of L1210-inoculated BDF1 mice (Table 7)
# neuroblastoma cells = settings: two contradicting studies; cited from earlier work
# [4] = test system: spindle cell sarcoma with multiple metastasis; settings: cited from earlier work
# [5] = no test described at this place
# T1 sequence (G1TDN4 1-381): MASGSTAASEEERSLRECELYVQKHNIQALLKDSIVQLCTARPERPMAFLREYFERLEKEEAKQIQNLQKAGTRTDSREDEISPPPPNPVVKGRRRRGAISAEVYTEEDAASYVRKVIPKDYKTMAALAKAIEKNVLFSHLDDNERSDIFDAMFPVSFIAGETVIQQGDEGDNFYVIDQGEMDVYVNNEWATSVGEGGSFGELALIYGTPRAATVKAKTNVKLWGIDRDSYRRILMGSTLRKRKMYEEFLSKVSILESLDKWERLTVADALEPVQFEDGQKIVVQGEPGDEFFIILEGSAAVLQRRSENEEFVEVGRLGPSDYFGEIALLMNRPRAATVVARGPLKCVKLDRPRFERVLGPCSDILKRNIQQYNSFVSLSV
SMILES,% Cell Population in G1 (MCF-7) [%],% Cell Population in G2M (MCF-7) [%],% Cell Population in S (MCF-7) [%],cell cycle phase distribution (MCF-7),inhibition at 1 µM [1] [%],"relative affinity Ki (cAMP)/Ki (analogue), RI Site A ([2]; Site A (Site 2), literature)","relative affinity Ki (cAMP)/Ki (analogue), RI Site B ([2]; Site B (Site 1), literature)",site selectivity of binding to RI [2],effect on protein kinase isozyme type I ([3]; literature),effect on protein kinase isozyme type II ([3]; literature),"effect on RIIβ isoform [3, 5]","effect on RIα isoform [3, 5]","antitumor effect (L1210 leukemia; 104 mg/kg bolus, seven consecutive days)","increase in mean life span (L1210 leukemia; constant infusion 104 mg/kg/day, five days) [%]",tumorigenicity (neuroblastoma cells),"tumor size ([4]; 3-6 mg/kg iv, five hours daily, days 1-9 and 47-56)","tumor histology ([4]; biopsied on days 2, 14, and 60)"
"Nc1ncnc2c1nc(Cl)n2[C@@H]1O[C@@H]2COP(=O)(O)O[C@H]2[C@H]1O [8-Cl-cAMP, 8-chloro-adenosine 3': 5'-monophosphate]",53,25,22,not appreciably different,30,2.71,2.0,binds to site 2 of the RI receptor,drastically downregulates type I protein kinase,upregulating type II protein kinase in its holoenzyme form,"upregulates the RII β, isoform",downregulates the RIα isoform,no antitumor effect,37,–,–,–
"CCCC(=O)Nc1ncnc2c1ncn2[C@@H]1O[C@@H]2COP(=O)(O)O[C@H]2[C@H]1OC(=O)CCC [DBcAMP, N^6, O^2' -dibutyryl-cAMP, reference compound]",–,–,–,–,–,–,–,–,–,–,–,–,–,–,decreased; also recorded: unaltered,The tumor size plateaued and even decreased during both infusion periods,evidence of differentiation
